In patent US4829076A, “Novel dihydropyridines having calcium antagonistic and antihypertensive activity” (Alkaloida Vegyeszeti Gyar, priority 1986, dated 1989):
Where two headings read alike, the source gives them in different places.

Key:
[1] = system: anesthetized, normotensive cats; experiment: Hypotensive effect in anesthetized, normotensive cats; format: in vivo, cat; settings: 1 mg/kg id.
Experimental: A tube was inserted in the trachea of cats anesthetized with ip.35 mg/kg of pentobarbital sodium to ensure spontaneous respiration. The femoral artery and vein were both cannulated unilaterally. The vegetative test compounds (adrenaline, isoproterenol) were administered through the venous cannule. The mean arterial blood pressure was measured by joining the arterial cannule to a Statham P23Db pressure transducer and electromanometer. The heart rate was determined by a cardiotachometer triggered by arterial pulse-wave.
Various doses of the test compounds were administered through a cannule inserted into the duodenum.

[2] = system: spontaneously hypertensive conscious rats; experiment: Antihypertensive effect in spontaneously hypertensive conscious rats ("SH" rats); format: in vivo, rat (Wistar-Okamoto); settings: for change in vivo at 5 mg/kg / change in vivo at 10 mg/kg: Rattus norvegicus, po
Experimental: The blood pressure of rats was measured before treatment and hourly after drug administration till the 24th posttreatment hour. The test compounds were administered orally, by gavage.

[3] = system: conscious rats with renal hypertension; experiment: Antihypertensive effect in rats with renal hypertension ("RH" rats); format: in vivo, rat (CFY male); settings: for Systolic blood pressure, 0 h: 0 h (baseline)
Experimental: The test was performed according to the method of Grollman [Proc. Soc. Exptl. […] The test compounds were administered orally.

[4] = system: conscious rats with DOCA-induced hypertension; experiment: Antihypertensive effect in rats with DOCA-induced hypertension ("DH" rats); format: in vivo, rat; settings: for Systolic blood pressure, 0 h: 0 h (baseline)
Experimental: The test was performed according to Cunning et al. [J. Pharm. Exp. Ther. 161, 88 (1981)].

[5] = target: T1, potential-mediated calcium channel (Rattus norvegicus, UniProt P22002); experiment: Calcium-antagonistic effect on an isolated vessel preparation (portal vein); settings: depolarizing solution (90 mM KCl), CaCl2 2.5 and 5.0 mM, 37° C., pH 7.4, read-out: Inhibition of the potential-mediated calcium channel, IC50
T1 construct: Portal veins were obtained from decapitated male rats; from tissue; host or cells: rat portal vein (longitudinally incised venous segment)
Experimental: Portal veins were obtained from decapitated male rats weighing 300 to 350 g. The longitudinally incised venous segment was suspended in an organ chamber (10 ml) filled with physiological saline solution under resting tension of 1 g. Its upper end was attached to a HSI force-displacement transducer. Isometric contractions were recorded with a Beckman Dynograph.
After the initial equilibration period in a calcium-free Krebs-Ringer bicarbonate solution (KRB) the vein was exposed to a depolarizing solution (calcium-free KRB containing 90 mM of KCl) for 10 minutes. In order to determine the cumulative contractile responses CaCl2 was added in an end-concentration of 2.5 and 5.0 mM, resp. Each medium was oxygenated with carbogen gas and maintained at 37° C. and pH 7.4.
The influence of the test compounds on the contraction was determined by incubating the veins in the depolarizing solution for 10 minutes before and during exposure to Ca^2+. Each vein preparation was subjected to a single concentration of the test compound.
For each experiment the 100% responses were considered as the maximum contractile responses during the control Ca curves. The contractions after exposure to the test compounds were expressed as the percentage of these values.

[6] = target: T2, 1,4-dihydropyridine receptor; experiment: Receptor binding studies (displacement of 3H-nitrendipine, heart microsomal preparation); settings: displacement of 50% of 3H-nitrendipine
T2 construct: to the heart microsomal preparation; from tissue; host or cells: heart microsomal preparation

[7] = system: PGF2alpha induced uterus contractions (isolated rat uterus); experiment: In vitro uterus relaxant activity in the isolated rat uterus (inhibition of PGF2alpha induced contraction); settings: 10^-6 M test compound
Experimental: The test was performed according to the method of Gaddum and Hammeed [Brit. […] The inhibitory activity of 10^-6 M doses of the test compounds on the PGF2alpha induced uterus contractions was determined.

[8] = 10 mg/kg p.o., 2 h, read-out: Systolic blood pressure reduction in %, 2 h
[9] = 10 mg/kg p.o., 5 h, read-out: Systolic blood pressure reduction in %, 5 h
[10] = 10 mg/kg p.o., 24 h, read-out: Systolic blood pressure reduction in %, 24 h

T1 sequence (P22002 whole entry): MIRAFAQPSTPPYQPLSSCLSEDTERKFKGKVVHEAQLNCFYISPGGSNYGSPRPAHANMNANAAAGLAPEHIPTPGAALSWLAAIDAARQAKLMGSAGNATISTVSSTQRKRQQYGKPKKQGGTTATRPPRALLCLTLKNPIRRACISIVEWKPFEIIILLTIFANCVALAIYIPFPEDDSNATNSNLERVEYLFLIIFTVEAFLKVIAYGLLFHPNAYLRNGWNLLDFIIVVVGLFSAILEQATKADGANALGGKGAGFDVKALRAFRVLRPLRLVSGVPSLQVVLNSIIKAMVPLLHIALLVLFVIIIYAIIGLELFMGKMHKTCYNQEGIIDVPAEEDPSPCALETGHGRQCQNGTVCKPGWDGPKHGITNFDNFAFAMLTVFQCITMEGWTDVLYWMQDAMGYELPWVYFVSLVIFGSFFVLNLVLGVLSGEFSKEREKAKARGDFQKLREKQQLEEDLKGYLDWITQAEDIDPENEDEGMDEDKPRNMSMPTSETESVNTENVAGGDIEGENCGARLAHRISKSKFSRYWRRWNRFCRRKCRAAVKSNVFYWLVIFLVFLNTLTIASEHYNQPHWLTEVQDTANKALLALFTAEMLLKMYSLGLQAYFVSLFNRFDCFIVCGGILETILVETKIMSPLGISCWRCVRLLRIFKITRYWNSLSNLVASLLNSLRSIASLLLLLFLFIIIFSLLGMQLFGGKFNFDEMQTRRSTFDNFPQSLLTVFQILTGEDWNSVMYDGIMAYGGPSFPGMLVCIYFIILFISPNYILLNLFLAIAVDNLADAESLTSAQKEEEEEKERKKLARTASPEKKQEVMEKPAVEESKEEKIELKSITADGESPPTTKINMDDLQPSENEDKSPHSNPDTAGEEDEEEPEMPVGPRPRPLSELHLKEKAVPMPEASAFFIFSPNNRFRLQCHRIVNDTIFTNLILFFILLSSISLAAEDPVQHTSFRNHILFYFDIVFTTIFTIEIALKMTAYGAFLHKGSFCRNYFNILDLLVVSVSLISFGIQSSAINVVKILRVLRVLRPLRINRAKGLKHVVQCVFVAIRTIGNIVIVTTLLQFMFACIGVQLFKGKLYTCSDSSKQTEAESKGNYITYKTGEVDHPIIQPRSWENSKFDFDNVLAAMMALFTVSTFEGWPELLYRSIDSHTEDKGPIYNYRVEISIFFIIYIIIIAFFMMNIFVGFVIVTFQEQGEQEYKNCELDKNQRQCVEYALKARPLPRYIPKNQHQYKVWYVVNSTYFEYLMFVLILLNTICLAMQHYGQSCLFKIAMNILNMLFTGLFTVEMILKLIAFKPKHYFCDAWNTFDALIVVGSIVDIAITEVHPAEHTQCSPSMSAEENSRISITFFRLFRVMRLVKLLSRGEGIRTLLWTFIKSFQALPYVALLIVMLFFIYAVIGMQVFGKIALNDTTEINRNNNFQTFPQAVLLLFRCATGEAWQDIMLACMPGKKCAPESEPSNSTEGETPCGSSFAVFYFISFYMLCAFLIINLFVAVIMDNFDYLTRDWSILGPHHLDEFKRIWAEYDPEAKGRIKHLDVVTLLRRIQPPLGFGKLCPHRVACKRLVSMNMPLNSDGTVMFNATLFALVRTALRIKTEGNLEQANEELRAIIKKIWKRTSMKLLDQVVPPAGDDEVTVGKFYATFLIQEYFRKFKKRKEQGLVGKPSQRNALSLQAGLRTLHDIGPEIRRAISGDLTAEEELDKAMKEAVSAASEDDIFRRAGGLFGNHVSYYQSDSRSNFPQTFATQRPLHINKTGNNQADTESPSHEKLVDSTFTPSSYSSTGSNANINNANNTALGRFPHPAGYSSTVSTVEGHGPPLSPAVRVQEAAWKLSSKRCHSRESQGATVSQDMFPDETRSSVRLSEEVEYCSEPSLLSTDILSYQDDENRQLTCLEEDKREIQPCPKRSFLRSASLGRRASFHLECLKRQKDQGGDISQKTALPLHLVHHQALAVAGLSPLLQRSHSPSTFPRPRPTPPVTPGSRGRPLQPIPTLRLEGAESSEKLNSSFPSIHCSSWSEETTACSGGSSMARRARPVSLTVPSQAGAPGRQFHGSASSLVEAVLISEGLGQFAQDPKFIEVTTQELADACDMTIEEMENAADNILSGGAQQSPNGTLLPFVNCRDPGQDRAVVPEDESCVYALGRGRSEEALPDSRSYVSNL
T1 sequence (P54290 25-943 partner limits assumed): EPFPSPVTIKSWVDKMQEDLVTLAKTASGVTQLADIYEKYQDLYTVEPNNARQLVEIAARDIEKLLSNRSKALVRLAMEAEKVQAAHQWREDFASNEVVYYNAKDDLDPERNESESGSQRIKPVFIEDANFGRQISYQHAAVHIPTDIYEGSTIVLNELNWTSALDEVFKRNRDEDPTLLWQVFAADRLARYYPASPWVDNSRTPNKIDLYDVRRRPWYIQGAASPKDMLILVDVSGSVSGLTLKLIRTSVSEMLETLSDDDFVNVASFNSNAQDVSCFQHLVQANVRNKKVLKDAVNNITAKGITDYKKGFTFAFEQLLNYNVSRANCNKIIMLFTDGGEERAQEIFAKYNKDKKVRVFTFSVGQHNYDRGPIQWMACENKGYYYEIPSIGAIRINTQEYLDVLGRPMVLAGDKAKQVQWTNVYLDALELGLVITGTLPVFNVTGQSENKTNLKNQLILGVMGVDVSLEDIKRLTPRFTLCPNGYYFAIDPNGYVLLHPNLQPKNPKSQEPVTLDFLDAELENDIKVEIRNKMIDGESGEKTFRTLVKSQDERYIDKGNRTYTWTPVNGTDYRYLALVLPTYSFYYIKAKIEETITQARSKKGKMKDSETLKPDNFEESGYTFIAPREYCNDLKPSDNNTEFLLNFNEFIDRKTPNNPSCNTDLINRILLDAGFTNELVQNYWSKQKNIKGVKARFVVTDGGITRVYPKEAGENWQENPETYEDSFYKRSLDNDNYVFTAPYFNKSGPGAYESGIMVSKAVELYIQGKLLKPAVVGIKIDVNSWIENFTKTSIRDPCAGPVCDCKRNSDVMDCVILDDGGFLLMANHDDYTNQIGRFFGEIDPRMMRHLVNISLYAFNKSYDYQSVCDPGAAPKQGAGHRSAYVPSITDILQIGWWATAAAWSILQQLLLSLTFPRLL
T1 sequence (P54290 944-1091 partner limits assumed): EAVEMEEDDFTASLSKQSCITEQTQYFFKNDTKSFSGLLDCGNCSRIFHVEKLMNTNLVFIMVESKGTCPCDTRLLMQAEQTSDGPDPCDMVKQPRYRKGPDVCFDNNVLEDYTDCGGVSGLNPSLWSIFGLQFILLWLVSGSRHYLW

## COC(=O)C1=C(C)NC(C)=C(C(=O)OC)C1c1ccccc1NC(=O)c1ccc([N+](=O)[O-])cc1 [Example 7]
[1]
  Mean arterial pressure, 5 min: 115 Hgmm
  Mean arterial pressure, 15 min: 60 Hgmm
  Mean arterial pressure, 30 min: 50 Hgmm
  Mean arterial pressure, 60 min: 60 Hgmm
  Mean arterial pressure, 120 min: 85 Hgmm
[2]; 5 mg/kg p.o., 2 h
  Systolic blood pressure, 2 h: 175.2 Hgmm
[2]; 5 mg/kg p.o., 5 h
  Systolic blood pressure, 5 h: 157.6 Hgmm
[2]; 5 mg/kg p.o., 24 h
  Systolic blood pressure, 24 h: 217.6 Hgmm
[2]; 10 mg/kg p.o., 2 h
  Systolic blood pressure, 2 h: 164.0 Hgmm
[2]; 10 mg/kg p.o., 5 h
  Systolic blood pressure, 5 h: 164.0 Hgmm
[2]; 10 mg/kg p.o., 24 h
  Systolic blood pressure, 24 h: 230.0 Hgmm
[2]; 5 mg/kg p.o., 2 h, read-out: Systolic blood pressure reduction in %, 2 h
  change in vivo at 5 mg/kg: -15%
[2]; 5 mg/kg p.o., 5 h, read-out: Systolic blood pressure reduction in %, 5 h
  change in vivo at 5 mg/kg: -24%
[2]; 5 mg/kg p.o., 24 h, read-out: Systolic blood pressure reduction in %, 24 h
  change in vivo at 5 mg/kg: 5%
[2]; [8]
  change in vivo at 10 mg/kg: -28%
[2]; [9]
  change in vivo at 10 mg/kg: -28%
[2]; [10]
  change in vivo at 10 mg/kg: 1%
[3]; 5 mg/kg p.o.
  Systolic blood pressure, 0 h: 206.6 Hgmm
  Pressure reduction in %, 2 h: -15%
  Systolic blood pressure, 2 h: 177.7 Hgmm
  Pressure reduction in %, 5 h: -13%
  Systolic blood pressure, 5 h: 188.6 Hgmm
  Pressure reduction in %, 24 h: +3%
  Systolic blood pressure, 24 h: 213.3 Hgmm
[3]; 10 mg/kg p.o.
  Systolic blood pressure, 0 h: 198.8 Hgmm
  Pressure reduction in %, 2 h: -31%
  Systolic blood pressure, 2 h: 138.8 Hgmm
  Pressure reduction in %, 5 h: -25%
  Systolic blood pressure, 5 h: 150.0 Hgmm
  Pressure reduction in %, 24 h: +6%
  Systolic blood pressure, 24 h: 212.2 Hgmm
[4]; 5 mg/kg p.o.
  Systolic blood pressure, 0 h: 176.8 Hgmm
  Pressure reduction in %, 2 h: -24%
  Systolic blood pressure, 2 h: 135.7 Hgmm
  Pressure reduction in %, 5 h: -16%
  Systolic blood pressure, 5 h: 149.4 Hgmm
  Pressure reduction in %, 24 h: +2%
  Systolic blood pressure, 24 h: 180.8 Hgmm
[4]; 10 mg/kg p.o.
  Systolic blood pressure, 0 h: 176.2 Hgmm
  Pressure reduction in %, 2 h: -28%
  Systolic blood pressure, 2 h: 126.7 Hgmm
  Pressure reduction in %, 5 h: -17%
  Systolic blood pressure, 5 h: 147.5 Hgmm
  Pressure reduction in %, 24 h: 0%
  Systolic blood pressure, 24 h: 177.5 Hgmm
[5]
  IC50: 0.5 nM
[6]
  IC50: 6.3 ± 0.05 nM

## COC(=O)C1=C(C)NC(C)=C(C(=O)OC)C1c1ccccc1NC(=O)C(F)(F)F [Example 34, 2,6-Dimethyl-3,5-bis(methoxycarbonyl)-4-(2-trifluoro-acetamidophenyl)-1,4-dihydropyridine]
[7]
  Inhibition of PGF2alpha induced contraction: 98.0%
[1]
  Mean arterial pressure, 5 min: 90 Hgmm
  Mean arterial pressure, 15 min: 60 Hgmm
  Mean arterial pressure, 30 min: 75 Hgmm
  Mean arterial pressure, 60 min: 90 Hgmm
  Mean arterial pressure, 120 min: 105 Hgmm
[2]; 10 mg/kg p.o., 2 h
  Systolic blood pressure, 2 h: 170.0 Hgmm
[2]; 10 mg/kg p.o., 5 h
  Systolic blood pressure, 5 h: 182.0 Hgmm
[2]; 10 mg/kg p.o., 24 h
  Systolic blood pressure, 24 h: 216.0 Hgmm
[2]; [8]
  change in vivo at 10 mg/kg: -25%
[2]; [9]
  change in vivo at 10 mg/kg: -19%
[2]; [10]
  change in vivo at 10 mg/kg: -4%
[3]; 10 mg/kg p.o.
  Systolic blood pressure, 0 h: 198.0 Hgmm
  Pressure reduction in %, 2 h: -28%
  Systolic blood pressure, 2 h: 141.0 Hgmm
  Pressure reduction in %, 5 h: -14%
  Systolic blood pressure, 5 h: 167.0 Hgmm
  Pressure reduction in %, 24 h: 0%
  Systolic blood pressure, 24 h: 199.0 Hgmm
[4]; 5 mg/kg p.o.
  Systolic blood pressure, 0 h: 192.0 Hgmm
  Pressure reduction in %, 2 h: -22%
  Systolic blood pressure, 2 h: 150.0 Hgmm
  Pressure reduction in %, 5 h: -16%
  Systolic blood pressure, 5 h: 163.0 Hgmm
  Pressure reduction in %, 24 h: 0%
  Systolic blood pressure, 24 h: 193.0 Hgmm
[4]; 10 mg/kg p.o.
  Systolic blood pressure, 0 h: 189.0 Hgmm
  Pressure reduction in %, 2 h: -23%
  Systolic blood pressure, 2 h: 146.0 Hgmm
  Pressure reduction in %, 5 h: -30%
  Systolic blood pressure, 5 h: 134.0 Hgmm
  Pressure reduction in %, 24 h: -2%
  Systolic blood pressure, 24 h: 186.0 Hgmm
[5]
  IC50: 2.5 nM
[6]
  IC50: 16 ± 1.6 nM
